Measured values as given in patent publication US11298333B1, “Methods of reducing the risk of cardiovascular events in a subject” (Amarin Pharmaceuticals Ireland Limited, priority 2018, dated 2022).

System: hypertriglyceridemic patients with cardiovascular disease or at high risk for cardiovascular disease
Experiment: REDUCE-IT: safety, treatment-emergent adverse events (incl. bleeding and gastrointestinal TEAEs)
[1] = gastrointestinal TEAE, Safety population N = 4089
[2] = gastrointestinal TEAE, number of patients, Safety population N = 4089
[3] = most frequent TEAEs (≥5%), N = 4089
[4] = no significant increase vs placebo
[5] = serious bleeding TEAE by preferred term, N = 4089
[6] = serious bleeding TEAE by preferred term, number of patients, N = 4089
[7] = serious bleeding TEAE, N = 4089
[8] = serious bleeding TEAE, number of patients, N = 4089
[9] = significantly higher than placebo

Description: Specification of Variables and Procedures: Safety assessments included adverse events, clinical laboratory measurements (chemistry, hematology), 12-lead ECGs, vital signs (systolic and diastolic blood pressure, heart rate, respiratory rate, and body temperature), weight, waist circumference, and physical examinations as per Study Procedures in Table 1. […] All laboratory test results were evaluated by the investigator as to their clinical significance. Any observations at physical examinations or laboratory values considered by the investigator to be clinically significant were considered an adverse event.
An adverse event can therefore be any unfavorable and/or unintended sign (including an abnormal laboratory finding), symptom, or disease temporally associated with the use of an investigational medication product, whether or not related to the investigational medication product. All adverse events, including observed or volunteered problems, complaints, or symptoms, were recorded on the appropriate CRF. Each adverse event was evaluated for duration, intensity, and causal relationship with the study medication or other factors.
Serious Adverse Events: A serious adverse event (SAE) is defined as an adverse event that meets any of the following criteria: • Results in death; • Is life-threatening—The term “life-threatening” in the definition of “serious” refers to an event in which the patient was at risk of death at the time of the event. […] Important medical events that may not result in death, be life threatening, or require hospitalization were considered an SAE when, based upon appropriate medical judgment, they may have jeopardized the patient and may have required medical or surgical intervention to prevent one of the outcomes listed above.
Adverse Events of Special Interest: Bleeding-related adverse events, glucose control (fasting blood glucose and HbA1c), and indicators of hepatic disorders (e.g., ALT or AST increases >3×ULN, total bilirubin increases of ≥2×ULN) were summarized separately and compared between treatment groups.
Analysis of Safety: All analyses of safety were conducted on the safety population, which was defined as all randomized patients. The safety assessment was based on the frequency of adverse events, physical exams, vital signs and safety laboratory tests. AEs with new onset during the study between the initiation of study drug and 30 days after the last dose of study drug for each patient was considered treatment-emergent (TEAEs). This included any AE with onset prior to initiation of study drug and increased severity after the treatment initiation.
This included overall incidence rates (regardless of severity and relationship to study drug), and incidence rates for moderate or severe adverse events. A summary of SAEs and adverse events leading to early discontinuation (for ≥30 days) were presented through data listings. Patients who restarted study drug were included in the summary of AEs leading to discontinuation. Safety laboratory tests and vital signs were summarized by post-treatment change from baseline for each of the parameters using descriptive statistics by treatment group. Those patients with significant laboratory abnormalities were identified in data listings. Additional safety parameters were summarized in data listings.

Structure (SMILES): CC/C=C\C/C=C\C/C=C\C/C=C\C/C=C\CCCC(=O)OCC [Icosapent Ethyl, eicosapentaenoic acid ethyl ester]
- Overall adverse event rates compared with placebo (4 grams daily): similar
- Positively Adjudicated Atrial Fibrillation/Flutter (hospitalization) (N = 4089): 127 (3.1%) n (%)
- Serious TEAE (≥2%) Pneumonia (N = 4089): 105 (2.6%) n (%)
- Serious TEAE (Safety population N = 4089): 1252 (30.6%) n (%)
- Serious TEAE Leading to Death (Safety population N = 4089): 94 (2.3%) n (%)
- Serious TEAE Leading to Withdrawal of Study Drug (Safety population N = 4089): 88 (2.2%) n (%)
- Serious bleeding TEAE: Bleeding related disorders (Safety population N = 4089): 111 (2.7%) n (%)
- Serious bleeding TEAE: Central nervous system bleeding (Safety population N = 4089): 14 (0.3%) n (%)
- Serious bleeding TEAE: Gastrointestinal bleeding (Safety population N = 4089): 62 (1.5%) n (%)
- Serious bleeding TEAE: Other bleeding (Safety population N = 4089): 41 (1.0%) n (%)
- Subjects with at Least One TEAE (Safety population N = 4089): 3343 (81.8%) n (%)
- TEAE Leading to Withdrawal of Study Drug (Safety population N = 4089): 321 (7.9%) n (%)
- Constipation (TEAE), percentage of patients [1]: (5.4%)
- Diarrhea (TEAE), percentage of patients [1]: (9.0%)
- Gastroesophageal Reflux Disease (TEAE), percentage of patients [1]: (3.0%)
- Gastrointestinal disorders (TEAE), percentage of patients [1]: (33.0%)
- Nausea (TEAE), percentage of patients [1]: (4.6%)
- Constipation (TEAE), patients [2]: 221
- Diarrhea (TEAE), patients [2]: 367
- Gastroesophageal Reflux Disease (TEAE), patients [2]: 124
- Gastrointestinal disorders (TEAE), patients [2]: 1350
- Nausea (TEAE), patients [2]: 190
- Treatment-emergent serious adverse events for bleeding, rate (in vivo): 2.7%
- Rate of anemia (adverse event) (lower than placebo): 4.7%
- Rate of diarrhea (adverse event) (lower than placebo): 9%
- Rate of gastrointestinal adverse events (lower than placebo): 33.0%
- TEAE Anemia [3]: 191 (4.7%) n (%)
- TEAE Angina pectoris [3]: 200 (4.9%) n (%)
- TEAE Arthralgia [3]: 313 (7.7%) n (%)
- TEAE Atrial fibrillation [3]: 215 (5.3%) n (%)
- TEAE Back pain [3]: 335 (8.2%) n (%)
- TEAE Bronchitis [3]: 306 (7.5%) n (%)
- TEAE Cataract [3]: 233 (5.7%) n (%)
- TEAE Chest pain [3]: 273 (6.7%) n (%)
- TEAE Constipation [3]: 221 (5.4%) n (%)
- TEAE Cough [3]: 241 (5.9%) n (%)
- TEAE Diarrhea [3]: 367 (9.0%) n (%)
- TEAE Dizziness [3]: 235 (5.7%) n (%)
- TEAE Dyspnea [3]: 254 (6.2%) n (%)
- TEAE Fatigue [3]: 228 (5.6%) n (%)
- TEAE Hypertension [3]: 320 (7.8%) n (%)
- TEAE Influenza [3]: 263 (6.4%) n (%)
- TEAE Nasopharyngitis [3]: 314 (7.7%) n (%)
- TEAE Osteoarthritis [3]: 241 (5.9%) n (%)
- TEAE Pain in extremity [3]: 235 (5.7%) n (%)
- TEAE Peripheral edema [3]: 267 (6.5%) n (%)
- TEAE Pneumonia [3]: 263 (6.4%) n (%)
- Tolerability (no significant difference in rates of serious adverse events versus placebo): well tolerated
- Serious central nervous system bleeding, rate [4]: 0.3%
- Serious gastrointestinal bleeding, rate [4]: 1.5%
- Serious adverse event pneumonia, rate (only serious adverse event at frequency ≥2%): 2.6%
- Aortic Aneurysm Rupture, percentage [5]: (0.0%)
- Brain Contusion, percentage [5]: (0.0%)
- Catheter Site Hemorrhage, percentage [5]: (0.0%)
- Cerebral Hemorrhage, percentage [5]: (0.0%)
- Cystitis Hemorrhagic, percentage [5]: (0.0%)
- Diverticulitis Intestinal Hemorrhagic, percentage [5]: (0.0%)
- Diverticulum Intestinal Hemorrhagic, percentage [5]: (0.1%)
- Duodenal Ulcer Hemorrhage, percentage [5]: (0.0%)
- Ecchymosis, percentage [5]: (0.0%)
- Epistaxis, percentage [5]: (0.2%)
- Esophageal Hemorrhage, percentage [5]: (0.0%)
- Extravasation Blood, percentage [5]: (0.0%)
- Gastric Hemorrhage, percentage [5]: (0.0%)
- Gastric Ulcer Hemorrhage, percentage [5]: (0.1%)
- Gastrointestinal Angiodysplasia Hemorrhagic, percentage [5]: (0.0%)
- Gastrointestinal Hemorrhage, percentage [5]: (0.6%)
- Genital Hemorrhage, percentage [5]: (0.0%)
- Hemarthrosis, percentage [5]: (0.0%)
- Hematemesis, percentage [5]: (0.1%)
- Hematochezia, percentage [5]: (0.0%)
- Hematoma, percentage [5]: (0.0%)
- Hematuria, percentage [5]: (0.2%)
- Hemoptysis, percentage [5]: (0.0%)
- Hemorrhagic Anemia, percentage [5]: (0.1%)
- Hemorrhagic Duodenitis, percentage [5]: (0.0%)
- Hemorrhagic Transformation Stroke, percentage [5]: (0.0%)
- Hemorrhoidal Hemorrhage, percentage [5]: (0.1%)
- Hemothorax, percentage [5]: (0.0%)
- Immune Thrombocytopenic Purpura, percentage [5]: (0.0%)
- Intra-Abdominal Hemorrhage, percentage [5]: (0.0%)
- Intracranial Hemorrhage, percentage [5]: (0.0%)
- Large Intestinal Hemorrhage, percentage [5]: (0.0%)
- Lower Gastrointestinal Hemorrhage, percentage [5]: (0.1%)
- Mallory-Weiss Syndrome, percentage [5]: (0.0%)
- Melaena, percentage [5]: (0.1%)
- Menorrhagia, percentage [5]: (0.0%)
- Mouth Hemorrhage, percentage [5]: (0.0%)
- Pancreatitis Hemorrhagic, percentage [5]: (0.0%)
- Peptic Ulcer Hemorrhage, percentage [5]: (0.0%)
- Pericardial Hemorrhage, percentage [5]: (0.0%)
- Post Procedural Hematoma, percentage [5]: (0.0%)
- Post Procedural Hematuria, percentage [5]: (0.0%)
- Post Procedural Hemorrhage, percentage [5]: (0.1%)
- Rectal Hemorrhage, percentage [5]: (0.2%)
- Renal Hemorrhage, percentage [5]: (0.0%)
- Retinal Hemorrhage, percentage [5]: (0.0%)
- Retroperitoneal Hematoma, percentage [5]: (0.0%)
- Retroperitoneal Hemorrhage, percentage [5]: (0.0%)
- Shock Hemorrhagic, percentage [5]: (0.0%)
- Subarachnoid Hemorrhage, percentage [5]: (0.0%)
- Subdural Hematoma, percentage [5]: (0.2%)
- Subdural Hemorrhage, percentage [5]: (0.0%)
- Traumatic Hematoma, percentage [5]: (0.0%)
- Traumatic Intracranial Hemorrhage, percentage [5]: (0.0%)
- Ulcer Hemorrhage, percentage [5]: (0.0%)
- Upper Gastrointestinal Hemorrhage, percentage [5]: (0.1%)
- Urinary Bladder Hemorrhage, percentage [5]: (0.0%)
- Aortic Aneurysm Rupture, patients [6]: 1
- Brain Contusion, patients [6]: 0
- Catheter Site Hemorrhage, patients [6]: 0
- Cerebral Hemorrhage, patients [6]: 0
- Cystitis Hemorrhagic, patients [6]: 2
- Diverticulitis Intestinal Hemorrhagic, patients [6]: 0
- Diverticulum Intestinal Hemorrhagic, patients [6]: 3
- Duodenal Ulcer Hemorrhage, patients [6]: 2
- Ecchymosis, patients [6]: 1
- Epistaxis, patients [6]: 7
- Esophageal Hemorrhage, patients [6]: 0
- Extravasation Blood, patients [6]: 1
- Gastric Hemorrhage, patients [6]: 1
- Gastric Ulcer Hemorrhage, patients [6]: 3
- Gastrointestinal Angiodysplasia Hemorrhagic, patients [6]: 1
- Gastrointestinal Hemorrhage, patients [6]: 26
- Genital Hemorrhage, patients [6]: 1
- Hemarthrosis, patients [6]: 0
- Hematemesis, patients [6]: 3
- Hematochezia, patients [6]: 1
- Hematoma, patients [6]: 1
- Hematuria, patients [6]: 8
- Hemoptysis, patients [6]: 1
- Hemorrhagic Anemia, patients [6]: 4
- Hemorrhagic Duodenitis, patients [6]: 0
- Hemorrhagic Transformation Stroke, patients [6]: 1
- Hemorrhoidal Hemorrhage, patients [6]: 3
- Hemothorax, patients [6]: 1
- Immune Thrombocytopenic Purpura, patients [6]: 0
- Intra-Abdominal Hemorrhage, patients [6]: 1
- Intracranial Hemorrhage, patients [6]: 0
- Large Intestinal Hemorrhage, patients [6]: 1
- Lower Gastrointestinal Hemorrhage, patients [6]: 5
- Mallory-Weiss Syndrome, patients [6]: 1
- Melaena, patients [6]: 3
- Menorrhagia, patients [6]: 1
- Mouth Hemorrhage, patients [6]: 0
- Pancreatitis Hemorrhagic, patients [6]: 1
- Peptic Ulcer Hemorrhage, patients [6]: 1
- Pericardial Hemorrhage, patients [6]: 0
- Post Procedural Hematoma, patients [6]: 1
- Post Procedural Hematuria, patients [6]: 0
- Post Procedural Hemorrhage, patients [6]: 5
- Rectal Hemorrhage, patients [6]: 10
- Renal Hemorrhage, patients [6]: 0
- Retinal Hemorrhage, patients [6]: 1
- Retroperitoneal Hematoma, patients [6]: 0
- Retroperitoneal Hemorrhage, patients [6]: 1
- Shock Hemorrhagic, patients [6]: 2
- Subarachnoid Hemorrhage, patients [6]: 2
- Subdural Hematoma, patients [6]: 9
- Subdural Hemorrhage, patients [6]: 2
- Traumatic Hematoma, patients [6]: 2
- Traumatic Intracranial Hemorrhage, patients [6]: 0
- Ulcer Hemorrhage, patients [6]: 1
- Upper Gastrointestinal Hemorrhage, patients [6]: 3
- Urinary Bladder Hemorrhage, patients [6]: 1
- Central Nervous System Bleeding (category), percentage [7]: (0.3%)
- Gastrointestinal Bleeding (category), percentage [7]: (1.5%)
- Other Bleeding (category), percentage [7]: (1.0%)
- Patients with Bleeding-Related Disorders, percentage [7]: (2.7%)
- Central Nervous System Bleeding (category), patients [8]: 14
- Gastrointestinal Bleeding (category), patients [8]: 62
- Other Bleeding (category), patients [8]: 41
- Patients with Bleeding-Related Disorders, patients [8]: 111
- Rate of atrial fibrillation (adverse event) [9]: 5.3%
- Rate of peripheral edema (adverse event) [9]: 6.5%
